# Source: patent US20100119489A1, “Stimulation of Pancreatic Beta Cell Proliferation” (priority 2005, published 2010)
# B1: TMEM27 full-length protein (other, mouse, UniProt Q9ESG4 15-222, looked up)
# chain: ELCHPDAENAFKVRLSIRAALGDKAYVWDTDQEYLFRAMVAFSMRKVPNREATEISHVLLCNITQRVSFWFVVTDPSNNYTLPAAEVQSAIRKNRNRINSAFFLDDHTLEFLKIPSTLAPPMEPSVPVWIIVFGVIFCIVTVAIALLVLSGIRQRRRNNKGPPGVEDAEDKCENIITIENGIPCDPLDMKGGHINDGFLTEDERLTPL
# modifications: N-glycosylated (predicted N-glycosylation sites at amino acid residues 76 and 93)
# notes: Detected in cell or islet lysates (Western blot) and in fixed, permeabilized MIN6 cells; It also differs from the immunizing peptides, so it is not used here; the transgenic construct uses murine cDNA; also called TMEM protein
# Legend:
# TMEM27 [1] = assay: Inhibition of N-glycosylation of TMEM27 in MIN6 cells (SDS-PAGE, immunoblot); type: cell-based; conditions: increasing concentrations of tunicamycin, 12 hours at 37° C.
# Procedure: (§1) (A) MIN6 cells were incubated with increasing amounts of tunicamycin, which inhibits glycosylation at asparagine residues. Addition of DMSO alone to the cells had no effect. (B) Supernatant from MIN6 cells was incubated with N-glycanase. […] Secreted protein was detected with anti-Col-3 antibody. (C) MIN6 cell lysates were incubated with either PBS or cross-linking reagents DTBP and BMH. […] Under reducing conditions, only the monomer was detected in PBS and DTBP-treated cell lysates. In contrast, the dimer persisted in BMH-treated samples as BMH cross-linking could not be reversed.
# MIN6 cells that express pV5-TMEM27 were incubated with indicated concentrations of tunicamycin (Sigma) dissolved in DMSO and with DMSO alone for 12 hours at 37° C. Cell lysates were then subjected to SDS-PAGE and immunoblotting with anti-V5 antibody.
# TMEM27 contains two predicted N-glycosylation sites at amino acid residues 76 and 93. MIN6 cells were treated with tunicamycin, which inhibits N-glycosylation. Cells were incubated in the presence of increasing concentrations of tunicamycin, and protein extracts were prepared and analyzed by SDS-PAGE and immunoblotting.
# TMEM27 [2] = assay: Shedding of TMEM27 from MIN6 cells (immunoblot of supernatant, N-terminus; anti-V5 C-terminus as control); type: cell-based; conditions: 2 hrs in OPTI-MEM
# Procedure: The pancreatic beta-cell line MIN6 was cultured with DMEM medium containing 25 mM glucose, 15% fetal bovine serum, and 5.5 μM 2-mercaptoethanol. MIN6 cells were plated at 50% confluency in 12 well plates and incubated for 24 hrs. Cells were washed with OPTI-MEM (Invitrogen) and incubated with either DMSO or protease inhibitor BB94 (1 μM) for 15 minutes in OPTI-MEM at 37° C. After the above incubation, cells were incubated with DMSO, PMA (Sigma P8139), BB94, or PMA+BB94 for 2 hrs in OPTI-MEM. 30 μl of each supernatant was collected for SDS-PAGE. Immunoblots were performed using anti-TMEM27 antibodies recognizing the N-terminus (cleaved portion) of TMEM27 (FIG. 8). […] Since BB94 is a known inhibitor of serine proteases and metalloproteases, this may indicate that TMEM27 is a substrate of a protease belonging to serine protease or metalloprotease family.
# [3] = target: the molecule itself; assay: chemical cross-linking (DTBP, BMH) of MIN6 cell lysates, reducing and non-reducing SDS-PAGE, immunoblot
# Procedure: as §1
# Chemical cross-linking experiments testing whether TMEM27 protein exists as a multimer were conducted. MIN6 cell extracts were incubated in the presence of two different cross-linking reagents; BMH (bismaleimidohexane), a membrane-permeable, non-cleavable compound and DTBP (dimethyl 3,3′-dithiobispropionimidate), a membrane permeable, cleavable compound prior to SDS-PAGE analysis that was performed under reducing and non-reducing conditions. […] However, the protein dimers disappeared under reducing conditions in the presence of DTBP (FIG. 3b). The results were similar in MIN6 cells that endogenously express TMEM27 and in N2A cells that were transiently transfected with TMEM27 expression vector (data not shown).
molecule,measurement,setting,value
tunicamycin,effect on TMEM27 bands (N-glycosylation),TMEM27 [1],Two bands with increased electrophoretic mobility appeared
"CCCCCCCCCCCCCC(=O)O[C@@H]1[C@@H](C)[C@@]2(O)[C@@H](C=C(CO)C[C@]3(O)C(=O)C(C)=C[C@@H]23)[C@@H]2C(C)(C)[C@]12OC(C)=O [PMA, phorbol 12-myristate 13-acetate]","expression levels of TMEM27 (C-terminus, anti-V5 antibody control)",TMEM27 [2],do not change the expression levels of TMEM27
B1,binding result,[3],binds
